This is an account of results in patent US20080226718A1, “Indole and Azaindole Derivatives For the Treatment of Inflammatory and Autoimmune Diseases” (Brane Discovery S.r.l, priority 2005, published 2008).

The test system of assay [1] is encephalitogenic lymphocytes. The assay is described as follows: Spontaneous adhesion of encephalitogenic T cells on purified ICAM-1. The class given is cell-based, SJL mice. The conditions noted are these: Mus musculus, Lymphocyte, 1 h. The procedure, abridged:
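Autoreactive T cells came from SJL mice immunized with PLP139-151. Cells were pretreated for 1 h with compound at 5-100 μM or DMSO vehicle, then tested for spontaneous adhesion to purified ICAM-1 or VCAM-1. Inhibition is given as percent of vehicle control (100%), mean ± S.D. of three-four experiments.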

Assay [2] deals with encephalitogenic lymphocytes. The assay is described as follows: Spontaneous adhesion of encephalitogenic T cells on purified VCAM-1. The class given is cell-based, SJL mice. The protocol:
Spontaneous adhesion of encephalitogenic lymphocytes was measured in adhesion assays on purified ICAM-1 and VCAM-1 as previously described (Constantin G. et al., J. Immunol. 162, 1144-1149, 1999). Autoreactive T cells were obtained from SJL mice immunized with PLP139-151 as described (Piccio L. et al., J. Immunol. 168, 1940-1949, 2002). Lymphocytes were treated with test compound at concentrations between 5-100 μM for 1 h, while control/untreated cells were treated with vehicle (DMSO). Results are expressed as percentage of inhibition over control (=100%) ±S.D and are the mean of three-four experiments.
ICAM-1 and VCAM-1 are adhesion molecules from the family of immunoglobulins and control the migration of lymphocytes through the endothelium during inflammatory responses. Encephalitogenic T cells are activated lymphocytes displaying spontaneous adhesion on ICAM-1 and VCAM-1 and have increased migration capacities in inflammation sites. Spontaneous adhesion of encephalitogenic lymphocytes was measured in adhesion assays on purified ICAM-1 and VCAM-1 as described in the method.

In assay [3] the test system is NADPH-oxidase. The assay is described as follows: Respiratory burst (H2O2 assay), NADPH-oxidase activation in PMNs. The note with it: PMA 200 ng/ml; 10, 50, 100 μM; FIG. 1a. The class given is cell-based. As for the experimental part: NADPH-oxidase activation was measured as induction of H2O2 release (derived from dismutation of O2^−) triggered in PMNs and monocytes by PMA (200 ng/ml). Briefly, PMNs and monocytes were pretreated at 37° C. for 30-60 min with test compound at different concentrations, and stimulated with phorbol 12-myristate 13-acetate (PMA, 200 ng/ml) dissolved in 0.5 ml of a standard reaction mixture. Release of H2O2 was evaluated in real time at time points of 5 min by using a microplate fluorescence reader (Perkin-Elmer). Results are expressed as nmoles of H2O2 released over time by 10^6 cells. Shown are dose-response curves of inhibitory effect on H2O2 release over 60 min.

Consider `COC(=O)c1[nH]c2cc(OC)c(OC)cc2c1-c1ccc(OC)cc1` [Example 1], for which the inhibition at 5 µM is 47% in assay [1] ([cpd] 5 μM, read-out: Inhibition of Spontaneous Adhesion in encephalitogenic lymphocytes (% of control/non-treated cells) ICAM-1) and 46% in assay [2] (Mus musculus, Lymphocyte, [cpd] 5 μM, 1 h, read-out: Inhibition of Spontaneous Adhesion in encephalitogenic lymphocytes (% of control/non-treated cells) VCAM-1). For the same compound, the inhibition at 10 µM in assay [1] ([cpd] 10 μM, read-out: Inhibition of Spontaneous Adhesion in encephalitogenic lymphocytes (% of control/non-treated cells) ICAM-1 (converted)) is 65%; in assay [2] (Mus musculus, Lymphocyte, [cpd] 10 μM, 1 h, read-out: Inhibition of Spontaneous Adhesion in encephalitogenic lymphocytes (% of control/non-treated cells) VCAM-1 (converted)), 66%. For the same compound, the inhibition at 25 µM was 70% in assay [1] ([cpd] 25 μM, read-out: Inhibition of Spontaneous Adhesion in encephalitogenic lymphocytes (% of control/non-treated cells) ICAM-1 (converted)) and 74% in assay [2] (Mus musculus, Lymphocyte, [cpd] 25 μM, 1 h, read-out: Inhibition of Spontaneous Adhesion in encephalitogenic lymphocytes (% of control/non-treated cells) VCAM-1 (converted)). For the same compound, the inhibition at 50 µM was 89% in assay [1] ([cpd] 50 μM, read-out: Inhibition of Spontaneous Adhesion in encephalitogenic lymphocytes (% of control/non-treated cells) ICAM-1 (converted)) and 92.4% in assay [2] (Mus musculus, Lymphocyte, [cpd] 50 μM, 1 h, read-out: Inhibition of Spontaneous Adhesion in encephalitogenic lymphocytes (% of control/non-treated cells) VCAM-1 (converted)). Moreover, in assay [1] ([cpd] 100 μM, read-out: Inhibition of Spontaneous Adhesion in encephalitogenic lymphocytes (% of control/non-treated cells) ICAM-1 (converted)), the inhibition at 100 µM was 96%. In addition, the “Blocking spontaneous adhesion to VCAM-1, in words” value in assay [2] is “very efficient”. Besides, the “NADPH-oxidase activation (H2O2 release) in PMNs, in words” value in assay [3] is listed as “inhibits NADPH-oxidase activation”.
